The structures appear in SMILES notation.

The target of data set [1] is Cytochrome P450 3A4 (Homo sapiens, UniProt P08684). The experiment in a line: Effect on CYP3A4 in human hepatocytes assessed as nifedipine oxidation activity using nifedipine as substrate at 10 uM. In kind it is ADME, cell-based, Hepatocyte.
Data set [2] concerns the target T1, 7-dehydrocholesterol reductase (Homo sapiens) (UniProt Q9UBM7).
T1 sequence (whole entry): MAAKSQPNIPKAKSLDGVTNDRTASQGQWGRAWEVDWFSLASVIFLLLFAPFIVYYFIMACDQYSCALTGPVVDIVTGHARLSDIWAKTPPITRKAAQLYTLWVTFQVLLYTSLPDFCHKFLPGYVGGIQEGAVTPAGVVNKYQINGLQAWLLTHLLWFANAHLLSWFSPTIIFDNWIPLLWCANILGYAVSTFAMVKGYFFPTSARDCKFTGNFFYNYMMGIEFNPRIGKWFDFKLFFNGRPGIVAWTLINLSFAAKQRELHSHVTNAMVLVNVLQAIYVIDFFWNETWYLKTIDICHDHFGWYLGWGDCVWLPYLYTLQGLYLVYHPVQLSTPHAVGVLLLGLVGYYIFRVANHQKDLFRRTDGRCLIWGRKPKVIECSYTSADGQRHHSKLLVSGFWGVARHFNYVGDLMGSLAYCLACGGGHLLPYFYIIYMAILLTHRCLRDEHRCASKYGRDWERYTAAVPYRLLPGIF
The data set is described as follows: Inhibition of DHCR7 activity in human hepatocytes assessed as increase in 7-dehydrocholesterol level per gram of protein by GC-MS analysis (reference value: 16.3 ug). The data set is classed as cell-based. The settings on record: Hepatocyte.

The target of data set [3] is T2, Delta(24)-sterol reductase (Homo sapiens) (UniProt Q15392).
T2 sequence (whole entry): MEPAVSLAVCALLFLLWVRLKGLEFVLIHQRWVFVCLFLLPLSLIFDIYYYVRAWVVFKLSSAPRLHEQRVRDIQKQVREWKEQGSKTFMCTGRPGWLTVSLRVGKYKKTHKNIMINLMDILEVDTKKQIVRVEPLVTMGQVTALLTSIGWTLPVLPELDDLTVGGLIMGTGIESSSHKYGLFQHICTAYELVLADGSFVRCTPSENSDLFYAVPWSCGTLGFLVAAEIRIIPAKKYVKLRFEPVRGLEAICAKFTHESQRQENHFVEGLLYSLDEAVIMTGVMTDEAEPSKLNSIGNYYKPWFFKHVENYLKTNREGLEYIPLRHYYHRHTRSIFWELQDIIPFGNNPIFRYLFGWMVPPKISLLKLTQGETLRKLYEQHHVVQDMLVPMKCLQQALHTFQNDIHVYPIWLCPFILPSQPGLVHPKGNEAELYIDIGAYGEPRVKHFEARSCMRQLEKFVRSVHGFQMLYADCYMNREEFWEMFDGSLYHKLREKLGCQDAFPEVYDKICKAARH
The data set is described as follows: Inhibition of DHCR24 activity in human hepatocytes assessed as increase in desmosterol level per gram of protein by GC-MS analysis (reference value: 5.5 ug). The data set is classed as cell-based. The settings on record: Hepatocyte.

Data set [4] has as its target T3, Lathosterol oxidase (Homo sapiens) (UniProt O75845).
T3 sequence (whole entry): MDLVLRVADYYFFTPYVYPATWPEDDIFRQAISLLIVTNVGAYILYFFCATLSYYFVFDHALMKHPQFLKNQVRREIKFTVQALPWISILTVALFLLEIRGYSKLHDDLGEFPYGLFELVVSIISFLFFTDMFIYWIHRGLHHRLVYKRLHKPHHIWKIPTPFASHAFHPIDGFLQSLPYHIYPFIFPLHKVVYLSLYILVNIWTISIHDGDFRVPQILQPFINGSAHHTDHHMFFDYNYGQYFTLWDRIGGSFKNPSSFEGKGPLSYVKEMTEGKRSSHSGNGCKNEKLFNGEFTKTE
The experiment in a line: Inhibition of SC5DL activity in human hepatocytes assessed as increase in lathosterol level per gram of protein by GC-MS analysis (reference value: 47.7 ug). The data set is classed as cell-based. The settings on record: Hepatocyte.

For data set [5], the system named is Hepatocyte. The experiment in a line: Effect on CYP3A4 mRNA expression in human hepatocytes at 10 uM after 12 to 48 hrs by RT-PCR analysis. In kind it is ADME, cell-based.
For data set [6], the target named is T4, 3-hydroxy-3-methylglutaryl-coenzyme A reductase (Homo sapiens) (UniProt P04035).
T4 sequence (whole entry): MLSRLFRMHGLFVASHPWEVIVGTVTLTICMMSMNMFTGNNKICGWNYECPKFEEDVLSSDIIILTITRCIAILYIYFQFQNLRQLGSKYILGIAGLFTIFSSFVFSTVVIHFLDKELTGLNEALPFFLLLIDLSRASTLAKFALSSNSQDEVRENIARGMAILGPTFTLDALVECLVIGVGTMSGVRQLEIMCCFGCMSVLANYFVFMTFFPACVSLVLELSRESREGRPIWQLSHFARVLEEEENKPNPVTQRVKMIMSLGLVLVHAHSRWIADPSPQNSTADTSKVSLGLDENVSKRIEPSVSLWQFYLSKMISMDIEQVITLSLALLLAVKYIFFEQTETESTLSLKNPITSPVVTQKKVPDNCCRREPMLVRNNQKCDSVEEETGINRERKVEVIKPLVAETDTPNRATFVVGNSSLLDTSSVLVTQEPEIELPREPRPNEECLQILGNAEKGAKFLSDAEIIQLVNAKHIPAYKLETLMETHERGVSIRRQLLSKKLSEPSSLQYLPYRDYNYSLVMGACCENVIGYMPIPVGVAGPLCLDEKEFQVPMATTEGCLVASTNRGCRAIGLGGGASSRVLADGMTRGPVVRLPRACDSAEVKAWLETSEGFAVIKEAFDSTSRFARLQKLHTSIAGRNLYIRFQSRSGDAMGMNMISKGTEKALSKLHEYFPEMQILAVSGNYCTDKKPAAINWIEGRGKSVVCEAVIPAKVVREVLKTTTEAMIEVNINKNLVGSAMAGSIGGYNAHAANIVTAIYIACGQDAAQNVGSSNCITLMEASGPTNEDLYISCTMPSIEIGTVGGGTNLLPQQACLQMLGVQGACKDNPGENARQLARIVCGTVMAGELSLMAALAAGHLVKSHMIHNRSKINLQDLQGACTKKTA
The data set is described as follows: Inhibition of HMGCR activity in human hepatocytes assessed as mevalonate formed per mg of protein at 100 uM by GC-MS analysis (reference value: 69 9 pmol/min). The data set is classed as cell-based. The following applies: Hepatocyte.

The target in data set [7] is T5, Delta(14)-sterol reductase TM7SF2 (Homo sapiens) (UniProt O76062).
T5 sequence (whole entry): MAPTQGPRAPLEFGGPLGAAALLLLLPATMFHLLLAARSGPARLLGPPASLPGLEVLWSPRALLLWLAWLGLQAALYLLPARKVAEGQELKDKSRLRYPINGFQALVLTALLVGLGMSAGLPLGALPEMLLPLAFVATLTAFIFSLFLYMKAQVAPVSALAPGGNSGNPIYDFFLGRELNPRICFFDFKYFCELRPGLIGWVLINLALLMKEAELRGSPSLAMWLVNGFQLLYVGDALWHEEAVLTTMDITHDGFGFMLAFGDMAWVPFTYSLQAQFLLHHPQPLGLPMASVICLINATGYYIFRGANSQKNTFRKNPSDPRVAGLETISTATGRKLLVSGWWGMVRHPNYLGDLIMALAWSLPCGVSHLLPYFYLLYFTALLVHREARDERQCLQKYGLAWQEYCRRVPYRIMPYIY
The data set is described as follows: Inhibition of DHCR14 activity in human hepatocytes assessed as increase in FF-MAS level per gram of protein by GC-MS analysis (reference value: 0.7 ug). The data set is classed as cell-based. The following applies: Hepatocyte.

Data set [8] addresses T4, 3-hydroxy-3-methylglutaryl-coenzyme A reductase (Homo sapiens). The data set is described as follows: Inhibition of HMGCR activity in human hepatocytes assessed as increase in 7-dehydrocholesterol level per gram of protein by GC-MS analysis (reference value: 16.3 ug). In kind it is cell-based. The settings on record: Hepatocyte.
The target is the same in data set [9]. The data set is described as follows: Inhibition of HMGCR activity in human hepatocytes assessed as increase in lathosterol level per gram of protein by GC-MS analysis (reference value: 47.7 ug). The data set is classed as cell-based. The settings on record: Hepatocyte.
Data set [10] shares this target. The experiment in a line: Inhibition of HMGCR activity in human hepatocytes assessed as increase in FF-MAS level per gram of protein by GC-MS analysis (reference value: 0.7 ug). In kind it is cell-based. The following applies: Hepatocyte.
The target is the same in data set [11]. The data set is described as follows: Inhibition of HMGCR activity in human hepatocytes assessed as increase in desmosterol level per gram of protein by GC-MS analysis (reference value: 5.5 ug). The settings on record: Hepatocyte. The data set is classed as cell-based.

Chain of Cytochrome P450 3A4 (P08684 whole entry): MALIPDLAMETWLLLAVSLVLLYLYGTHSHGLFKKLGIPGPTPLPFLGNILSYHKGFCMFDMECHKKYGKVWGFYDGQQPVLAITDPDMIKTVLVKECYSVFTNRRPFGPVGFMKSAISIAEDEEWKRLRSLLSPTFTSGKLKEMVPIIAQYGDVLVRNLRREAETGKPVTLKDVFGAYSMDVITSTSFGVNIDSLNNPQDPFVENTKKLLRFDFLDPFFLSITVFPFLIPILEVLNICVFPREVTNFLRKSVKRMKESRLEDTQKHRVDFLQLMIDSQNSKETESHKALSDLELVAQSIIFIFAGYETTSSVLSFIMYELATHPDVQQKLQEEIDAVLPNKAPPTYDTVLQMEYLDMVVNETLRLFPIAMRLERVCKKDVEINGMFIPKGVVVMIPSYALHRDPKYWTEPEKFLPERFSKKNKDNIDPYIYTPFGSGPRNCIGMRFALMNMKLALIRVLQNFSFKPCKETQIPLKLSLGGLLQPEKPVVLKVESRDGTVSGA

Regarding `OC(CN1CCN(CCc2ccccc2)CC1)c1cccnc1` (stereo unspecified), the Activity entry in [1] was “Non-toxic”; in [2] it was 556 µg; in [3] it was 10.1 µg; in data set [4] it was 119 µg; in data set [5], “Non-toxic”; in [6] it was 76 pmol/min. Also, in data set [7], the Activity stood at 2.9 µg.
`CC(C)c1c(C(=O)Nc2ccccc2)c(-c2ccccc2)c(-c2ccc(F)cc2)n1CC[C@@H](O)C[C@@H](O)CC(=O)O`: the Activity amounted to 15.8 µg in data set [8], 25.8 µg in data set [9], 0.3 µg in [10] and 2.7 µg in data set [11].

The values above are taken from ChEMBL document CHEMBL3526087, “Inhibition of human sterol Δ7-reductase and other postlanosterol enzymes by LK-980, a novel inhibitor of cholesterol synthesis” (Drug Metab Dispos, 2011).
